Data from patent US20100099561A1, “HETEROBICYCLIC ALKYLTHIO-BRIDGED ISOXAZOLINES” (E.I. DU PONT DE NEMOURS AND COMPANY, priority 2008, published 2010).

Key:
Type in all cases: in vivo
[1] = test system: giant foxtail (Setaria faberi); assay: Test A preemergence, giant foxtail; details: 0 to 100 scale (0 no effect, 100 complete control)
In short: (§1)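 Ratings of 0–100 (0 no effect, 100 complete control) came from visual comparison with untreated controls after roughly ten days in a greenhouse. Plants in loam soil–sand blend were treated with compound in non-phytotoxic solvent plus surfactant, pre- or postemergence (one- to two-leaf stage).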

[2] = test system: giant foxtail (Setaria faberi); assay: Test A postemergence, giant foxtail; details: 0 to 100 scale (0 no effect, 100 complete control)
In short: as §1

[3] = test system: morningglory (Ipomoea spp.); assay: Test A postemergence, morningglory; details: 0 to 100 scale (0 no effect, 100 complete control)
In short: as §1

[4] = test system: pigweed (Amaranthus retroflexus); assay: Test A postemergence, pigweed; details: 0 to 100 scale (0 no effect, 100 complete control)
In short: as §1

corn (Zea mays) = assay: Test A postemergence, corn; details: 0 to 100 scale (0 no effect, 100 complete control)
In short: as §1

[5] = test system: blackgrass (Alopecurus myosuroides); assay: Test B preemergence, blackgrass; details: scale 0 to 100
In short: (§2)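 Greenhouse preemergence test: loam/sand soil, compound in surfactant-containing non-phytotoxic solvent, evaluated visually after 13–15 days on a 0–100 control scale.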

[6] = test system: downy bromegrass (Bromus tectorum); assay: Test B preemergence, downy bromegrass; details: scale 0 to 100
In short: as §2

[7] = test system: green foxtail (Setaria viridis); assay: Test B preemergence, green foxtail; details: scale 0 to 100
In short: as §2

[8] = test system: wheat (Triticum aestivum); assay: Test B preemergence, wheat; details: Preemergence, scale 0 to 100
In short: as §2

wild oat (Avena fatua) = assay: Test B preemergence, wild oat; details: scale 0 to 100
In short: as §2

[9] = test system: catchweed bedstraw (Galium aparine); assay: Test B preemergence, catchweed bedstraw; details: scale 0 to 100
In short: as §2

[10] = test system: bermudagrass (Cynodon dactylon); assay: Test B preemergence, bermudagrass; details: scale 0 to 100
In short: as §2

[11] = test system: cocklebur (Xanthium strumarium); assay: Test B preemergence, cocklebur; details: scale 0 to 100
In short: as §2

[12] = test system: large crabgrass (Digitaria sanguinalis); assay: Test B preemergence, large crabgrass; details: scale 0 to 100
In short: as §2

[13] = test system: woolly cupgrass (Eriochloa villosa); assay: Test B preemergence, woolly cupgrass; details: scale 0 to 100
In short: as §2

[14] = test system: goosegrass (Eleusine indica); assay: Test B preemergence, goosegrass; details: scale 0 to 100
In short: as §2

[15] = test system: yellow nutsedge (Cyperus esculentus); assay: Test B preemergence, yellow nutsedge; details: scale 0 to 100
In short: as §2

[16] = test system: pigweed (Amaranthus retroflexus); assay: Test B preemergence, pigweed; details: scale 0 to 100
In short: as §2

[17] = test system: ragweed (common ragweed, Ambrosia elatior); assay: Test B preemergence, ragweed; details: scale 0 to 100
In short: as §2

[18] = test system: sunflower (common oilseed sunflower, Helianthus annuus); assay: Test B preemergence, sunflower; details: Preemergence, scale 0 to 100
In short: as §2

[19] = test system: velvetleaf (Abutilon theophrasti); assay: Test B preemergence, velvetleaf; details: Preemergence, scale 0 to 100
In short: as §2

CC1(C)CC(S(=O)(=O)Cc2c(C(F)(F)F)nc3n(c2=O)CCC3)=NO1 [Compound 11, 3-[[(4,5-dihydro-5,5-dimethyl-3-isoxazolyl)sulfonyl]methyl]-7,8-dihydro-2-(trifluoromethyl)pyrrolo[1,2-α]pyrimidin-4(6H)-one]
95: Plant response rating, Galium ([9]; 62 g ai/ha)
98: Plant response rating, Galium ([9]; 125 g ai/ha)
30: Plant response rating, Pigweed ([4]; 125 g ai/ha)
60: Plant response rating, Morningglory ([3]; 500 g ai/ha)
90: Plant response rating, Foxtail, Giant ([1]; 125 g ai/ha) | Plant response rating, Goosegrass ([14]; 31 g ai/ha)
0: Plant response rating, Blackgrass ([5]; 16 g ai/ha) | Plant response rating, Bromegrass, Downy ([6]; 16 g ai/ha) | Plant response rating, Bromegrass, Downy ([6]; 31 g ai/ha) | Plant response rating, Bromegrass, Downy ([6]; 62 g ai/ha) | Plant response rating, Wheat ([8]; 16 g ai/ha) | Plant response rating, Wheat ([8]; 31 g ai/ha) | Plant response rating, Oat, Wild (wild oat (Avena fatua); 16 g ai/ha) | Plant response rating, Galium ([9]; 16 g ai/ha) | Plant response rating, Galium ([9]; 31 g ai/ha) | Plant response rating, Cocklebur ([11]; 16 g ai/ha) | Plant response rating, Cocklebur ([11]; 31 g ai/ha) | Plant response rating, Cocklebur ([11]; 62 g ai/ha) | Plant response rating, Cocklebur ([11]; 125 g ai/ha) | Plant response rating, Nutsedge, Yellow ([15]; 16 g ai/ha) | Plant response rating, Nutsedge, Yellow ([15]; 31 g ai/ha) | Plant response rating, Nutsedge, Yellow ([15]; 62 g ai/ha) | Plant response rating, Nutsedge, Yellow ([15]; 125 g ai/ha) | Plant response rating, Pigweed ([16]; 16 g ai/ha) | Plant response rating, Pigweed ([16]; 31 g ai/ha) | Plant response rating, Ragweed ([17]; 16 g ai/ha) | Plant response rating, Sunflower ([18]; 16 g ai/ha) | Plant response rating, Sunflower ([18]; 31 g ai/ha) | Plant response rating, Sunflower ([18]; 62 g ai/ha) | Plant response rating, Velvetleaf ([19]; 16 g ai/ha) | Plant response rating, Velvetleaf ([19]; 31 g ai/ha) | Plant response rating, Velvetleaf ([19]; 62 g ai/ha)
70: Plant response rating, Pigweed ([4]; 500 g ai/ha) | Plant response rating, Blackgrass ([5]; 31 g ai/ha) | Plant response rating, Blackgrass ([5]; 62 g ai/ha) | Plant response rating, Foxtail, Green ([7]; 31 g ai/ha)
40: Plant response rating, Ragweed ([17]; 31 g ai/ha)
100: Plant response rating, Foxtail, Giant ([1]; 500 g ai/ha) | Plant response rating, Blackgrass ([5]; 125 g ai/ha) | Plant response rating, Foxtail, Green ([7]; 62 g ai/ha) | Plant response rating, Foxtail, Green ([7]; 125 g ai/ha) | Plant response rating, Bermudagrass ([10]; 31 g ai/ha) | Plant response rating, Bermudagrass ([10]; 62 g ai/ha) | Plant response rating, Bermudagrass ([10]; 125 g ai/ha) | Plant response rating, Crabgrass, Large ([12]; 62 g ai/ha) | Plant response rating, Crabgrass, Large ([12]; 125 g ai/ha) | Plant response rating, Cupgrass, Woolly ([13]; 31 g ai/ha) | Plant response rating, Cupgrass, Woolly ([13]; 62 g ai/ha) | Plant response rating, Cupgrass, Woolly ([13]; 125 g ai/ha) | Plant response rating, Goosegrass ([14]; 62 g ai/ha) | Plant response rating, Goosegrass ([14]; 125 g ai/ha) | Plant response rating, Pigweed ([16]; 62 g ai/ha) | Plant response rating, Pigweed ([16]; 125 g ai/ha)
50: Plant response rating, Corn (corn (Zea mays); 500 g ai/ha) | Plant response rating, Wheat ([8]; 125 g ai/ha) | Plant response rating, Ragweed ([17]; 62 g ai/ha)
55: Plant response rating, Ragweed ([17]; 125 g ai/ha)
10: Plant response rating, Morningglory ([3]; 125 g ai/ha) | Plant response rating, Oat, Wild (wild oat (Avena fatua); 31 g ai/ha)
65: Plant response rating, Bromegrass, Downy ([6]; 125 g ai/ha) | Plant response rating, Oat, Wild (wild oat (Avena fatua); 125 g ai/ha) | Plant response rating, Bermudagrass ([10]; 16 g ai/ha) | Plant response rating, Crabgrass, Large ([12]; 16 g ai/ha) | Plant response rating, Goosegrass ([14]; 16 g ai/ha) | Plant response rating, Velvetleaf ([19]; 125 g ai/ha)
20: Plant response rating, Corn (corn (Zea mays); 125 g ai/ha) | Plant response rating, Foxtail, Green ([7]; 16 g ai/ha) | Plant response rating, Wheat ([8]; 62 g ai/ha) | Plant response rating, Oat, Wild (wild oat (Avena fatua); 62 g ai/ha) | Plant response rating, Sunflower ([18]; 125 g ai/ha)
85: Plant response rating, Crabgrass, Large ([12]; 31 g ai/ha) | Plant response rating, Cupgrass, Woolly ([13]; 16 g ai/ha)
80: Plant response rating, Foxtail, Giant ([2]; 125 g ai/ha) | Plant response rating, Foxtail, Giant ([2]; 500 g ai/ha)
